{"source": "patent US20070281910A1", "about": "“Salicyl alcohol creatine phosphate prodrugs, compositions and uses thereof” (XenoPort, Inc., priority 2006, published 2007)", "origin": "cited, not measured here", "key": {"[1]": {"assay": "not given", "remark": "listed apart in the source"}, "[2]": {"conditions": "animals fed a diet containing up to 1%"}}, "note": "Like-named read-outs stand apart in the source and are kept apart here.", "data": [{"smiles": "CN(CC(=O)O)C(=N)NP(=O)(O)O", "note": "[Creatine phosphate, creatine phosphate]", "values": [{"measurement": "adverse side effects", "setting": "patients with cardiac diseases, intravenous injection up to 8 gm/day", "result": "without adverse side effects"}]}, {"smiles": "CN(CC(=O)O)C(=N)N.O", "note": "[creatine monohydrate]", "values": [{"measurement": "adverse side effects", "setting": "athletes and body builders, 2-3 gm/day", "result": "without adverse side effects"}]}, {"smiles": "CN(CC(=O)O)C(=N)N", "note": "[creatine]", "values": [{"measurement": "overall increase of creatine phosphate levels", "setting": "[1]; creatine supplementation over weeks", "result": "< 50", "unit": "%"}, {"measurement": "duration of increase in tissue creatine phosphate levels", "setting": "[1]; following oral creatine supplementation", "result": "> 14", "unit": "days"}, {"measurement": "increase of cerebral creatine phosphate", "setting": "[1]; healthy volunteers, oral creatine administration", "result": "about 10%"}]}, {"smiles": "NC1=NCCN1CC(=O)O", "note": "[cyclocreatine]", "values": [{"measurement": "adverse effects", "setting": "[2]", "result": "do not exhibit adverse effects"}]}]}
